Patent US20040235922A1, “Compositions and methods for inducing adipose tissue cell death” (priority 2003, published 2004)
Entries after “also recorded” stand apart in the source; their conditions may differ.

Columns and labels:
[1] = 21 day oral (diet) treatment of mice: body weight, food intake, feed efficiency, body temperature, body composition by PIXImus densitometry (Example 1); format: in vivo; conditions: 21 days, ICR mice
Method: The effects of clenbuterol, a β2-AR agonist, and ractopamine, a β1/β2-AR agonist, on growth, adiposity and adipose tissue apoptosis in male and female mice have been tested by feeding diets containing control, 200 ppm clenbuterol, or 200 or 800 ppm ractopamine. Food intake (FI) was measured daily; body weight (BW) and temperatures (BT) were measured on days 0, 3, 7, 10, 14, 17, and 20. On day 21 mice were sacrificed, body composition was determined using PIXImus densitometry, and muscle and adipose tissues were collected. There were no treatment effects on BT, FI, BW, feed efficiency or body composition. Retroperitoneal (Rp) and epididymal/parametrial (Epi/Par) fat pad masses were reduced in both 800 ppm ractopamine (40±3 and 207±20 mg, respectively) and clenbuterol (35±7 and 211±22 mg) treated mice compared to control (66±8 and 319±30 mg, p<0.05). Brown adipose tissue (BAT) mass was greater (p<0.05) in clenbuterol treated mice compared to other treatments. Adipose tissue apoptosis (% DNA fragmentation) was increased in Epi/Par fat pads in clenbuterol (5.2+1.1%) and 800 ppm ractopamine (4.1±0.8%) treated mice compared to control (1.7+0.4%, p<0.05).
(§1) Animals: Five week old male (n=20) and female (n=20) ICR mice (Harlan Research Laboratories, Indianapolis, Ind.) were allowed to acclimate for one week prior to the experiment start date. Animals were housed singly in suspended wire cages and were provided ground rodent chow (ProLab® RMH 2500; Purina Mills, St. Louis, Mo.) and water ad libitum. Ambient room temperature was maintained and the light/dark cycle was 0600/1800 hours, respectively. Animals were cared for in accordance with the Guide for the Care and Use of Laboratory Animals (Institute of Laboratory Animal Resources Commission on Life Sciences National Research Council. Guide for the Care and Use of Laboratory Animals. National Academy of Sciences, 1996). Prior to the start of the study, animals were briefly anesthetized with isofluorane and an IPPT-200 transponder (programmable ID and temperature, BMDS, Seaford, Del.) was implanted subcutaneously between the scapulae.
(§2) Materials: Test articles included clenbuterol (Sigma Chemical Company, St. Louis, Mo., item # C5423) and ractopamine hydrochloride—Paylean® 9 (Elanco Animal Health, Indianapolis, Ind.). Clenbuterol is available as a pure product, and ractopamine is readily available as a type A medicated article. Paylean® 9 contains about 20 g ractopamine hydrochloride per kilogram in a ground corncob base. In order to achieve doses of 200 and 800 ppm it was necessary to add about […] of product per kilogram of diet. Control and clenbuterol diets were prepared with about 80 g of alphacel, which is a diluent used to mimic the effect of the corncob in the ractopamine product. The dose of clenbuterol used in this experiment was similar to those used in previous experiments with mice (Agbenyega E T, and Wareham A C. Effect of clenbuterol on skeletal muscle atrophy in mice induced by the glucocorticoid dexamethasone. Comp Biochem Physiol Comp Physiol 1992;102:141-145, Rothwell N. J., and Stock M J. Modification of body composition by clenbuterol in normal and dystrophic (mdx) mice. Biosci Rep 1985;5:755-760, Hyltander A, Svaninger G, and Lundholm K. The effect of clenbuterol on body composition in spontaneously eating tumour-bearing mice. Biosci Rep 1993;13:325-331, Hayes A, and Williams DA. Long-term clenbuterol administration alters the isometric contractile properties of skeletal muscle from normal and dystrophin-deficient mdx mice. Clin Exp Pharmacol Physiol 1994;21:757-765, Dupont-Versteegden EE. Exercise and clenbuterol as strategies to decrease the progression of muscular dystrophy in mdx mice. J Appl Physiol 1996;80:734-741).
Daily Observations: Food intake was measured daily, while body weight and body temperatures were measured on days 0, 3, 7, 10, 14, 17, and 20 at approximately the same time of day (1300 hours) during the treatment period. […]

[2] = system: Epi/Par fat pads (white adipose tissue); assay: Adipose tissue apoptosis assay, % DNA fragmentation (Example 1); format: in vivo, mice; conditions: 21 days
Method: as §1, §2
DNA Isolation and Apoptosis Assay: Only the Epi and Par fat pads had sufficient tissue for the apoptosis assay. Apoptosis was assayed in two ways: DNA isolated from fat tissue was separated into two fractions: fragmented and genomic DNA. First, the fragmented DNA was run on an agarose gel in order to identify a ladder pattern of internucleosomal DNA degradation that is characteristic of apoptosis. Second, apoptosis was quantified as the ratio of fragmented- to total-DNA, multiplied by 100. Briefly, approximately 50 mg of the Epi or Par white adipose tissue was homogenized in lysis buffer (10 mM Tris-HCL, pH 8.0, 10 mM EDTA, pH 8.0; 0.5% Triton X-100) and centrifuged at 14,000× g for 15 min to separate fragmented DNA from genomic DNA. The supernatant, containing fragmented DNA, was extracted with phenol-chloroform-isoamyl alcohol (25:24:1), and the DNA was precipitated by adding polyacryl carrier (Molecular Research Center, Inc., Cincinnati, Ohio) and ethanol. Genomic (non-fragmented) DNA was extracted from the pellet with DNAzol and the polyacryl carrier. DNA in each fraction was quantified by the PicoGreen method (Molecular Probes, Inc., Eugene, Oreg.) and fluorescence was measured using a SpectroMax Gemini (Molecular Devices).
Statistical Analysis: Analysis of variance (SAS) was used to determine significance of treatment and gender effects. […]

[3] = system: female and male WT and GDF-8 KO mice; assay: Adipose, muscle and heart tissue weights in WT and GDF-8 KO mice (Example 2); conditions: 200 ppm in diet, 21 days

CC(C)(C)NCC(O)c1cc(Cl)c(N)c(Cl)c1 (stereo not shown) [Clenbuterol, clenbuterol]
Cumulative Feed Intake ([1]; 200 ppm in diet): 6.10 g | Densitometry Bone Mineral Content ([1]; 200 ppm in diet): 0.65 g | Densitometry Fat ([1]; 200 ppm in diet): 2.81 g | Densitometry Lean ([1]; 200 ppm in diet): 26.80 g | Feed Efficiency ([1]; 200 ppm in diet): 14.4 | Final Body Weight ([1]; 200 ppm in diet): 32.1 g | Weight Gain ([1]; 200 ppm in diet): 8.90 g | Effect on body temperature, food intake, body weight, feed efficiency, body composition ([1]; diet): not significantly affected; also recorded: Neither clenbuterol nor ractopamine affected | Percent DNA fragmentation (apoptosis) in the Epi/Par fat pad compared to control ([2]; 200 ppm clenbuterol, 800 ppm ractopamine in diet, p<0.05, listed as clenbuterol): increased; also recorded: significant increase in apoptosis | Adipose tissue apoptosis (% DNA fragmentation) in Epi/Par fat pads ([2]; 200 ppm in diet, mice, control 1.7±0.4%): 5.2 ± 1.1% | DNA fragmentation in retroperitoneal or inguinal fat pads ([2]; diet, mice): Neither clenbuterol nor ractopamine treatments increased | EPI/PAR (and RP) fat pad weights compared to control [3]: decreased; also recorded: reduced | Heart weight compared to control [3]: increased | Weights of dissected skeletal muscles [3]: did not affect; also recorded: no effect | EPI/PAR (and RP) fat pad weights compared to control ([3]; listed as clenbuterol): reduced; also recorded: smaller | Heart weight compared to control ([3]; listed as clenbuterol): significantly increased
